# Source: patent US20230405014A1, “USE OF AN IRAK4 MODULATOR FOR GENE THERAPY” (Genzyme Corporation, priority 2022, published 2023)
# Legend:
# [1] = system: human monocytic dendritic cells; assay: Cytokine release from human monocytic dendritic cells co-treated with AAV and KT-474 (Luminex); type: cell-based; conditions: co-treatment with AAV at MOI 1e5, 24 hours, all KT-474 doses
# Protocol: Preparation of Peripheral Blood Mononuclear Cells. Blood from leukopaks (Stem cell technologies) from different donors was decanted into 50 mL tubes and Dulbecco's phosphate buffered saline (DPBS) was added at a 1:1 ratio. The blood plus DBPS mix was gently pipetted into a separate 50 mL tube containing 15 mL Ficoll (GE17-5442-02) to ensure no mixing of the blood and Ficoll phases. The mixture was centrifuged at 2000 RPM for 25 minutes at room temperature (9 acceleration and no braking). The buffy coat containing the peripheral blood mononuclear cells (PBMCs) was collected, transferred to a new tube, and centrifuged for five minutes at 400 RCF. PBMCs were washed three times with phosphate buffered saline (PBS) containing 1% fetal bovine serum (FBS) or fetal calf serum (FCS) and counted.
# Isolation of Monocytes. CD14+ monocytes were isolated from the PBMCs using CD14 MicroBeads following the manufacturer's protocol (Miltenyi Biotech, Germany, order no. 130-050-201, protocol available online world wide web miltenyibiotec.com/upload/assets/IM0001260.PDF). Briefly, PBMCs were incubated with […] CD14 MicroBeads per 10^7 total cells for 15 minutes at 2-8° C. PBMCs were applied onto a magnetic column (Miltenyi; world wide web miltenyibiotec.com/US-en/products/ls-columns.html #130-042-401) and unlabeled cells were allowed to pass through. After washing the column three times, the column was removed from the magnetic separator, (Miltneyi; world wide web miltenyibiotec.com/US-en/products/quadromacs-separator-and-starting-kits.html #130-091-051) placed on a collection tube, and magnetically labeled CD14+ monocytes were flushed out by pushing a plunger into the column.
# Differentiation of Monocytes. […]
# rAAV Production and Titration. rAAV vectors were produced using a standard triple transfection method (Sena-Esteves and Gao, Cold Spring Harb Protoc; doi:10.1101/pdb.top095513, 2020). All serotypes evaluated encode the same GFP transgene. Viruses were purified by cesium chloride ultracentrifugation and titrated using both silver staining and quantitative polymerase chain reaction (qPCR). […]
# [2] = system: primary human monocytic dendritic cells; assay: Cell viability of dendritic cells (Live/Dead staining, flow cytometry); type: cell-based; conditions: AAV at MOI 1e5 and KT-474 co-treated, 24 hours, at doses tested, three donors (FIG. 3)
# [3] = system: transgene LacZ specific CD8 T cells; assay: In vivo mouse model of AAV-induced immune response, LacZ tetramer staining; parameters: species or system C57BL/6J mice; conditions: KT-474 in chow 100 mg/kg from 15 days prior to intramuscular AAV
# Protocol: In vivo mice experiments: C57BL/6J mice were purchased from Jackson Laboratories. 6-8-week male mice were divided into 3 groups—PBS group, AAV group and AAV+KT474 group all groups with 6 mice each. […] PBS group mice were injected intramuscularly with 100 ul PBS, AAV group was injected intramuscularly with 1e11 vg per quadricep muscle of both legs, 100 ul volume. AAV capsid used in the study had LacZ transgene. All animal experiments were conducted in accordance with the Institutional Animal Care and Use Committees at Sanofi, Framingham. Submandibular bleeds were performed weekly, and necropsy was performed three weeks post AAV injection.
# The PBS and AAV only groups were fed regular chow and were bled on day 14 and necorpsied on day 21.
# PBMC isolation 120 ul blood was collected in K2EDTA coated tubes. The blood was mixed with DBPS at 1:1 ration and pipetted into a separate tube containing Ficoll (GE17-5442-02) to ensure no mixing of the blood and Ficoll phases. The mixture was centrifuged at 2000 RPM for 25 minutes at room temperature (9 acceleration and no braking). […] PBMCs were washed three times with phosphate buffered saline (PBS) containing 1% fetal bovine serum (FBS) or fetal calf serum (FCS) and counted. The PBMC cells thus obtained were stained with different antibodies to quantify percentage of different immune cell subsets in peripheral blood. […]
compound,measurement,setting,value
Cn1c(=O)n(C2CCC(=O)NC2=O)c2cccc(C#CCOC3CCN(C[C@H]4CC[C@H](n5cc(NC(=O)c6cnn7ccc(N8C[C@H]9C[C@@H]8CO9)nc67)c(C(F)F)n5)CC4)CC3)c21 (stereo partly drawn) [KT-474],AAV-induced secretion of IL1b,[1]; three donors (FIG. 2A),blocked
same,AAV-induced secretion of IL6,[1]; three donors (FIG. 2B),blocked
same,AAV-induced secretion of TNFa,[1]; three donors (FIG. 2C),blocked
same,cellular toxicity (cell viability),[2],no cellular toxicity
same,LacZ tetramer positive (transgene LacZ specific) CD8 T cells in PBMCs,"[3]; peripheral blood, 14 days post AAV injection (FIG. 6A)",reduced significantly
same,LacZ tetramer positive (transgene LacZ specific) CD8 T cells in spleen,"[3]; splenocytes, 21 days post AAV injection (FIG. 6B)",reduced significantly
